Data as given in ChEMBL document CHEMBL4813981, “Synthesis and in vitro antibacterial activity of new aminothiazole-oximepiperidone cephalosporins” (2021).
Values after ≈ are worked out from the molar mass of the structure shown.

Legend:
[1] = system: Escherichia coli; test: Antibacterial activity against Escherichia coli 15-4 overexpressing extended spectrum beta-lactamases assessed as reduction in bacterial growth in the presence of Avibactam; type: functional
[2] = system: Acinetobacter baumannii; test: Antibacterial activity against Multidrug resistant Acinetobacter baumannii AR 15-2 assessed as reduction in bacterial growth in the presence of Avibactam; type: functional
[3] = system: Klebsiella aerogenes; test: Bactericidal activity against Enterobacter aerogenes 17-1 assessed as reduction in bacterial growth in the presence of avibactam; type: functional
[4] = system: Klebsiella aerogenes; test: Bactericidal activity against Enterobacter aerogenes 17-1 assessed as reduction in bacterial growth; type: functional
[5] = system: Klebsiella pneumoniae; test: Antibacterial activity against Klebsiella pneumoniae ATCC 700603 assessed as reduction in bacterial growth in the presence of Avibactam; type: functional
[6] = system: Klebsiella aerogenes; test: Antibacterial activity against Enterobacter aerogenes 17-1 assessed as reduction in bacterial growth in the presence of Avibactam; type: functional
[7] = system: Klebsiella pneumoniae; test: Antibacterial activity against ESBLs positive Carbapenem-sensitive Klebsiella pneumoniae 17-1 assessed as reduction in bacterial growth in the presence of Avibactam; type: functional
[8] = system: Klebsiella pneumoniae; test: Antibacterial activity against Carbapenem- resistant Klebsiella pneumoniae KR 15-5 assessed as reduction in bacterial growth
[9] = system: Klebsiella pneumoniae; test: Antibacterial activity against Carbapenem- resistant Klebsiella pneumoniae KR 15-9 assessed as reduction in bacterial growth in the presence of Avibactam; type: functional
[10] = system: Klebsiella pneumoniae; test: Bactericidal activity against Carbapenem- resistant Klebsiella pneumoniae KR 15-6 assessed as reduction in bacterial growth; type: functional
[11] = system: Klebsiella pneumoniae; test: Antibacterial activity against Carbapenem- resistant Klebsiella pneumoniae KR 15-8 assessed as reduction in bacterial growth in the presence of Avibactam; type: functional
[12] = system: Klebsiella pneumoniae; test: Antibacterial activity against Carbapenem- resistant Klebsiella pneumoniae KR 15-5 assessed as reduction in bacterial growth in the presence of Avibactam; type: functional
[13] = system: Klebsiella pneumoniae; test: Antibacterial activity against Carbapenem- resistant Klebsiella pneumoniae KR 15-8 assessed as reduction in bacterial growth
[14] = system: Pseudomonas aeruginosa; test: Bactericidal activity against carbapenem-sensitive Pseudomonas aeruginosa 17-10 assessed as reduction in bacterial growth; type: functional
[15] = system: Pseudomonas aeruginosa; test: Antibacterial activity against Pseudomonas aeruginosa ATCC 27853 assessed as reduction in bacterial growth in the presence of Avibactam; type: functional
[16] = system: Escherichia coli; test: Antibacterial activity against Escherichia coli ATCC 25922 assessed as reduction in bacterial growth in the presence of Avibactam; type: functional
[17] = system: Acinetobacter baumannii; test: Bactericidal activity against Carbapenem- resistant Acinetobacter baumannii 17-11 assessed as reduction in bacterial growth in the presence of avibactam; type: functional
[18] = system: Pseudomonas aeruginosa; test: Bactericidal activity against Carbapenem- resistant Pseudomonas aeruginosa 17-8 assessed as reduction in bacterial growth in the presence of avibactam; type: functional
[19] = system: Klebsiella pneumoniae; test: Antibacterial activity against ESBLs positive Carbapenem-sensitive Klebsiella pneumoniae 17-8 assessed as reduction in bacterial growth in the presence of Avibactam; type: functional
[20] = system: Pseudomonas aeruginosa; test: Antibacterial activity against Carbapenem- sensitive Pseudomonas aeruginosa 17-21 assessed as reduction in bacterial growth in the presence of Avibactam; type: functional
[21] = system: Klebsiella pneumoniae; test: Antibacterial activity against ESBLs negative Carbapenem-sensitive Klebsiella pneumoniae 17-20 assessed as reduction in bacterial growth in the presence of Avibactam; type: functional
[22] = system: Escherichia coli; test: Bactericidal activity against ESBLs negative carbapenem-sensitive Escherichia coli 17-20 assessed as reduction in bacterial growth in the presence of avibactam; type: functional
[23] = system: Escherichia coli; test: Bactericidal activity against ESBLs positive carbapenem-sensitive Escherichia coli 17-10 assessed as reduction in bacterial growth in the presence of avibactam; type: functional
[24] = system: Escherichia coli; test: Bactericidal activity against ESBLs positive Carbapenem-sensitive Escherichia coli 17-3 assessed as reduction in bacterial growth; type: functional
[25] = system: Enterobacter cloacae; test: Antibacterial activity against Enterobacter cloacae 17-10 assessed as reduction in bacterial growth in the presence of Avibactam; type: functional
[26] = system: Pseudomonas aeruginosa; test: Bactericidal activity against carbapenem-sensitive Pseudomonas aeruginosa 17-9 assessed as reduction in bacterial growth; type: functional
[27] = system: Acinetobacter baumannii; test: Antibacterial activity against Acinetobacter baumannii NCTC 13304 assessed as reduction in bacterial growth in the presence of Avibactam; type: functional
[28] = system: Klebsiella pneumoniae; test: Antibacterial activity against ESBLs positive Carbapenem-sensitive Klebsiella pneumoniae 17-15 assessed as reduction in bacterial growth in the presence of Avibactam; type: functional
[29] = system: Pseudomonas aeruginosa; test: Antibacterial activity against Carbapenem- sensitive Pseudomonas aeruginosa 17-11 assessed as reduction in bacterial growth in the presence of Avibactam; type: functional
[30] = system: Pseudomonas aeruginosa; test: Antibacterial activity against Carbapenem- sensitive Pseudomonas aeruginosa 17-30 assessed as reduction in bacterial growth; type: functional
[31] = system: Klebsiella pneumoniae; test: Antibacterial activity against ESBLs positive Carbapenem-sensitive Klebsiella pneumoniae 17-6 assessed as reduction in bacterial growth in the presence of Avibactam; type: functional
[32] = system: Acinetobacter baumannii; test: Antibacterial activity against Carbapenem- resistant Acinetobacter baumannii 17-9 assessed as reduction in bacterial growth in the presence of Avibactam; type: functional
[33] = system: Enterobacter cloacae; test: Bactericidal activity against Enterobacter cloacae 17-3 assessed as reduction in bacterial growth in the presence of avibactam; type: functional
[34] = system: Escherichia coli; test: Antibacterial activity against Escherichia coli 15-3 overexpressing extended spectrum beta-lactamases assessed as reduction in bacterial growth; type: functional
[35] = system: Klebsiella aerogenes; test: Antibacterial activity against Enterobacter aerogenes 17-4 assessed as reduction in bacterial growth in the presence of Avibactam; type: functional
[36] = system: Klebsiella aerogenes; test: Bactericidal activity against Enterobacter aerogenes 15-3 assessed as reduction in bacterial growth in the presence of avibactam; type: functional
[37] = system: Escherichia coli; test: Antibacterial activity against Escherichia coli 15-5 overexpressing extended spectrum beta-lactamases assessed as reduction in bacterial growth in the presence of Avibactam; type: functional
[38] = system: Pseudomonas aeruginosa; test: Bactericidal activity against carbapenem-sensitive Pseudomonas aeruginosa 17-7 assessed as reduction in bacterial growth in the presence of avibactam; type: functional
[39] = system: Enterobacter cloacae; test: Antibacterial activity against Enterobacter cloacae 17-8 assessed as reduction in bacterial growth in the presence of Avibactam; type: functional
[40] = system: Klebsiella pneumoniae; test: Bactericidal activity against Carbapenem- resistant Klebsiella pneumoniae KR 15-8 assessed as reduction in bacterial growth in the presence of avibactam; type: functional
[41] = system: Enterobacter cloacae; test: Bactericidal activity against Enterobacter cloacae 17-10 assessed as reduction in bacterial growth in the presence of avibactam; type: functional
[42] = system: Klebsiella aerogenes; test: Bactericidal activity against Enterobacter aerogenes 15-4 assessed as reduction in bacterial growth in the presence of avibactam; type: functional
[43] = system: Pseudomonas aeruginosa; test: Antibacterial activity against Carbapenem- sensitive Pseudomonas aeruginosa 17-26 assessed as reduction in bacterial growth in the presence of Avibactam; type: functional
[44] = system: Pseudomonas aeruginosa; test: Bactericidal activity against carbapenem-sensitive Pseudomonas aeruginosa 17-29 assessed as reduction in bacterial growth; type: functional
[45] = system: Acinetobacter baumannii; test: Antibacterial activity against Multidrug resistant Acinetobacter baumannii AR 15-4 assessed as reduction in bacterial growth in the presence of Avibactam; type: functional
[46] = system: Klebsiella pneumoniae; test: Antibacterial activity against Multidrug resistant Klebsiella pneumoniae KR 15-3 assessed as reduction in bacterial growth; type: functional
[47] = system: Klebsiella pneumoniae; test: Antibacterial activity against ESBLs positive Carbapenem-sensitive Klebsiella pneumoniae 17-6 assessed as reduction in bacterial growth
[48] = system: Pseudomonas aeruginosa; test: Bactericidal activity against Carbapenem- resistant Pseudomonas aeruginosa 17-1 assessed as reduction in bacterial growth in the presence of avibactam; type: functional

## Nc1nc(/C(=N/OCc2cc(=O)c(O)cn2O)C(=O)N[C@@H]2C(=O)N3C(C(=O)O)=CCS[C@H]23)cs1
[1]
  MIC: 0.5 µg/mL
[2]
  MIC: 16 µg/mL
[3]
  MBC: 4 µg/mL
[4]
  MBC: 64 µg/mL (≈ 126 µM)
[5]
  MIC: 64 µg/mL
[6]
  MIC: 2 µg/mL
[7]
  MIC: 0.25 µg/mL
[8]
  MIC: > 64 µg/mL
[9]
  MIC: 2 µg/mL
[10]
  MBC: 64 µg/mL (≈ 126 µM)
[11]
  MIC: 4 µg/mL
[12]
  MIC: 2 µg/mL
[13]
  MIC: > 64 µg/mL
[14]
  MBC: 8 µg/mL (≈ 15.7 µM)
[15]
  MIC: 1 µg/mL
[16]
  MIC: 0.25 µg/mL
[17]
  MBC: > 64 µg/mL
[18]
  MBC: 32 µg/mL
[19]
  MIC: 0.5 µg/mL
[20]
  MIC: 2 µg/mL
[21]
  MIC: 0.06 µg/mL
[22]
  MBC: > 0.5 µg/mL
[23]
  MBC: 0.5 µg/mL
[24]
  MBC: 2 µg/mL (≈ 3.93 µM)
[25]
  MIC: 0.5 µg/mL
[26]
  MBC: 16 µg/mL (≈ 31.5 µM)
[27]
  MIC: 16 µg/mL
[28]
  MIC: 0.125 µg/mL
[29]
  MIC: 2 µg/mL
[30]
  MIC: 1 µg/mL (≈ 1.97 µM)
[31]
  MIC: 0.25 µg/mL
[32]
  MIC: 16 µg/mL
[33]
  MBC: 8 µg/mL
[34]
  MIC: 64 µg/mL (≈ 126 µM)
[35]
  MIC: 1 µg/mL
[36]
  MBC: 16 µg/mL
[37]
  MIC: 0.5 µg/mL
[38]
  MBC: 0.25 µg/mL
[39]
  MIC: 2 µg/mL
[40]
  MBC: 16 µg/mL
[41]
  MBC: 1 µg/mL
[42]
  MBC: 1 µg/mL
[43]
  MIC: 1 µg/mL
[44]
  MBC: 8 µg/mL (≈ 15.7 µM)
[45]
  MIC: 8 µg/mL
[46]
  MIC: > 64 µg/mL
[47]
  MIC: 0.5 µg/mL (≈ 0.983 µM)
[48]
  MBC: 64 µg/mL

## CC(C)(O/N=C(\C(=O)N[C@@H]1C(=O)N2C(C(=O)[O-])=C(C[n+]3ccccc3)CS[C@H]12)c1csc(N)n1)C(=O)O [CEFTAZIDIME]
[1]
  MIC: 0.5 µg/mL
[2]
  MIC: 8 µg/mL
[3]
  MBC: 1 µg/mL
[4]
  MBC: 16 µg/mL (≈ 29.3 µM)
[5]
  MIC: 4 µg/mL
[6]
  MIC: 1 µg/mL
[7]
  MIC: 1 µg/mL
[8]
  MIC: > 64 µg/mL
[9]
  MIC: 2 µg/mL
[10]
  MBC: 64 µg/mL (≈ 117 µM)
[11]
  MIC: 4 µg/mL
[12]
  MIC: 2 µg/mL
[13]
  MIC: > 64 µg/mL
[14]
  MBC: 8 µg/mL (≈ 14.6 µM)
[15]
  MIC: 0.5 µg/mL
[16]
  MIC: 0.125 µg/mL
[17]
  MBC: 32 µg/mL
[18]
  MBC: 16 µg/mL
[19]
  MIC: 2 µg/mL
[20]
  MIC: 1 µg/mL
[21]
  MIC: 0.125 µg/mL
[22]
  MBC: > 2 µg/mL
[23]
  MBC: 1 µg/mL
[24]
  MBC: 2 µg/mL (≈ 3.66 µM)
[25]
  MIC: 1 µg/mL
[26]
  MBC: 0.5 µg/mL (≈ 0.915 µM)
[27]
  MIC: 8 µg/mL
[28]
  MIC: 1 µg/mL
[29]
  MIC: 0.5 µg/mL
[31]
  MIC: 0.5 µg/mL
[32]
  MIC: 8 µg/mL
[33]
  MBC: 0.25 µg/mL
[34]
  MIC: 8 µg/mL (≈ 14.6 µM)
[35]
  MIC: 0.5 µg/mL
[36]
  MBC: 4 µg/mL
[37]
  MIC: 1 µg/mL
[38]
  MBC: 0.25 µg/mL
[39]
  MIC: 0.125 µg/mL
[40]
  MBC: 4 µg/mL
[41]
  MBC: 1 µg/mL
[42]
  MBC: 0.25 µg/mL
[43]
  MIC: 1 µg/mL
[44]
  MBC: 4 µg/mL (≈ 7.32 µM)
[45]
  MIC: 8 µg/mL
[46]
  MIC: > 64 µg/mL
[47]
  MIC: 16 µg/mL (≈ 29.3 µM)
[48]
  MBC: 16 µg/mL

## C[C@@H](O)[C@H]1C(=O)N2C(C(=O)O)=C(S[C@@H]3CN[C@H](C(=O)N(C)C)C3)[C@H](C)[C@H]12 [MEROPENEM]
[30]
  MIC: 2 µg/mL (≈ 5.22 µM)
